Data: patent publication US20120329758A1, “Combined Treatment Utilizing VB-201” (priority 2010, published 2012)

Key:
[1] = tested on: atherosclerosis (aortic lesion area) in rabbits fed a high-cholesterol diet; assay: Measurement of aortic lesion area in rabbits fed a high-cholesterol diet; type: in vivo, male New Zealand White rabbits; conditions: high-cholesterol diet 14 weeks, atorvastatin approx. 2.5 mg/kg daily in diet, VB-201 approx. 4 mg/kg oral gavage 5 days per week, FIG. 1
Protocol: Aortas were collected upon sacrifice. Lesion area was determined by scanning the intensity of Sudan IV stain adhering to the lesioned tissue, using Image-Pro Plus software (Media Cybernetics). Lesion areas were calculated in three different sections of the aorta (aortic arch, thoracic aorta and abdominal aorta). The total aortic lesion area (sum of lesion areas in all 3 sections) was calculated as a percentage of the sum of all 3 section areas.
Atherosclerosis was induced in male New Zealand White rabbits (hsdIF:NZ, Harlan) by supplying the rabbits with a high-cholesterol diet (0.5% w/w cholesterol) for 14 weeks. The rabbits were assigned to four treatment groups (7 or 8 animals per group): a) atorvastatin treatment; b) VB-201 treatment; c) combined atorvastatin+VB-201 treatment; and d) PBS with 0.5% ethanol (control group). […]
(§1) At the end of 14 weeks, the rabbits were sacrificed, and the effects of the treatments were evaluated by measurement of aortic lesion areas and plasma cholesterol levels, and routine blood chemistry assessment (as described hereinabove). Plasma cholesterol levels were also determined after 5 weeks of the high-cholesterol diet.

[2] = Plasma cholesterol assay in rabbits fed a high-cholesterol diet; type: in vivo, male New Zealand White rabbits; conditions: for Average cholesterol level / Average cholesterol level (% of control): plasma, atorvastatin 2.5 mg/kg, VB-201 4 mg/kg; for effect on cholesterol levels (in words): rabbits on high-cholesterol diet, atorvastatin 2.5 mg/kg (alone or with VB-201), VB-201 4 mg/kg per se
Protocol: Plasma cholesterol levels were determined in the Bert W. Strassburger Lipid Center (Sheba Medical Center, Israel) using a Cobas Mira analyzer (Roche) and cholesterol reagent (Roche/Hitach).
Atherosclerosis was induced in male New Zealand White rabbits (hsdIF:NZ, Harlan) by supplying the rabbits with a high-cholesterol diet (0.5% w/w cholesterol) for 14 weeks. The rabbits were assigned to four treatment groups (7 or 8 animals per group): a) atorvastatin treatment; b) VB-201 treatment; c) combined atorvastatin+VB-201 treatment; and d) PBS with 0.5% ethanol (control group).
Atorvastatin was administered by supplementing the diet with 50 mg/kg atorvastatin, which corresponds to a daily dose of approximately 2.5 mg/kg, based on a daily food consumption of approximately 125 grams per rabbit and an average weight of 2.5 kg.
VB-201 was administered daily (5 days per week) by oral gavage of the stock solution (2.7 mg/ml) at volume of 1.5 ml per kg body weight, corresponding to a dose of approximately 4 mg/kg.
as §1

[3] = Blood chemistry assay (SGPT, alkaline phosphatase) in rabbits fed a high-cholesterol diet; type: in vivo, male New Zealand White rabbits; conditions: 14 weeks of high-cholesterol diet, atorvastatin 2.5 mg/kg, VB-201 4 mg/kg
Protocol: Blood chemistry was assayed by the Pathological Chemistry Institute Laboratory (Sheba Medical Center, Israel) using an AU2700® spectrophotometer (Olympus) and the appropriate Olympus reagents. The parameters evaluated were urea, creatinine, glucose, potassium, sodium, chloride, total calcium, phopshorus, uric acid, bilirubin, SGOT, SGPT, LDH, total CPK, CPK-MB, CK-MB %, total protein, albumin, globulin, alkaline phosphatase and osmolality levels. Atherosclerosis was induced in male New Zealand White rabbits (hsdIF:NZ, Harlan) by supplying the rabbits with a high-cholesterol diet (0.5% w/w cholesterol) for 14 weeks. The rabbits were assigned to four treatment groups (7 or 8 animals per group): a) atorvastatin treatment; b) VB-201 treatment; c) combined atorvastatin+VB-201 treatment; and d) PBS with 0.5% ethanol (control group). […] VB-201 was administered daily (5 days per week) by oral gavage of the stock solution (2.7 mg/ml) at volume of 1.5 ml per kg body weight, corresponding to a dose of approximately 4 mg/kg. At the end of 14 weeks, the rabbits were sacrificed, and the effects of the treatments were evaluated by measurement of aortic lesion areas and plasma cholesterol levels, and routine blood chemistry assessment (as described hereinabove).

[4] = tested on: DSS-induced colitis in mice; assay: Dextran sulfate sodium (DSS)-induced colitis model; type: in vivo; conditions: for body weight loss: DSS colitis mice, VB-201 oral daily; for body weight loss / disease activity index (DAI), chronic phase / disease activity index (DAI), acute phase: glatiramer acetate 2 mg per mouse s.c. daily; for disease activity index (DAI), chronic phase: after about day 20; for disease activity index (DAI), chronic phase / disease activity index (DAI), acute phase: VB-201 0.04, 0.4 or 4 mg/kg oral daily, FIG. 3; for disease activity index (DAI), acute phase: until about day 20
Protocol: Colitis was induced in mice with dextran sulfate sodium (DSS), to serve as a model of inflammatory disorders. A solution of 2% DSS was administered in the drinking water of the mice on days 0-4, 19-23 and 32-36 of the experiment.
VB-201 was administered by oral gavage at daily doses of 0.04, 0.4 or 4 mg/kg, beginning 5 days prior to disease induction (i.e., first day of DSS administration). In an alternative treatment, 2 mg per mouse of glatiramer acetate was administered subcutaneously, daily from day 0. Each treatment group included 20 mice. As a negative control, 15 mice were administered vehicle (PBS with 0.5% ethanol) by gavage beginning 5 days prior to disease induction. […], 8 mice were administered vehicle (PBS with 0.5% ethanol) by gavage beginning 5 days prior to disease induction, without treatment with DSS, and 5 mice received no treatment at all. Mice were sacrificed on day 39, and their colon length and weight was determined.
Mice were scored according to a disease activity index (DAI), based on the average score for weight loss, stool consistency and bleeding, as follows: […]

C-reactive protein (CRP) = conditions: healthy humans; previously shown; cited from earlier work
[5] = 5 weeks of high-cholesterol diet
[6] = 14 weeks of high-cholesterol diet
[7] = day 39, VB-201 at all tested doses (0.04, 0.4, 4 mg/kg), glatiramer acetate 2 mg per mouse, FIG. 4
[8] = glatiramer acetate 2 mg per mouse s.c. daily from day 0, FIG. 2

Row | Compound | reduction of aortic lesion areas relative to the control group [1] [%] | Average cholesterol level [2, 5] [mg/dL] | Average cholesterol level (% of control) [2, 5] | Average cholesterol level [2, 6] [mg/dL] | Average cholesterol level (% of control) [2, 6] | effect on cholesterol levels (in words) [2] | body weight loss [4] | disease activity index (DAI), chronic phase [4] | DSS-induced shortening of the colon length [4, 7] | disease activity index (DAI), acute phase [4] | other results
1 | CC(C)c1c(C(=O)Nc2ccccc2)c(-c2ccccc2)c(-c2ccc(F)cc2)n1CC[C@@H](O)C[C@@H](O)CC(=O)O [Atorvastatin] | 33 | 580 | 56 % of control | 1082 | 64 % of control | reduced cholesterol levels considerably | – | – | – | – | Average Alkaline Phosphatase level [3]: 104.63 IU/L; Average Alkaline Phosphatase level (% of control) [3]: 174 % of control; Average SGPT level [3]: 110.63 IU/L; Average SGPT level (% of control) [3]: 235 % of control; effect on SGPT and alkaline phosphatase levels (in words) ([3]; rabbits): increased
2 | CCCCCCCCCCCCCCCCOCC(COP(=O)([O-])OCC[N+](C)(C)C)OCCCCC(=O)O (stereo not shown) [VB-201, 1-hexadecyl-2-(4′-carboxybutyl)-glycerol-3-phosphocholine] | 39 | 1303 | 126 % of control | 2195 | 131 % of control | did not reduce cholesterol levels | reduced body weight loss over the period of days 17-24 | reduced the DAI | partially reversed | without reducing the DM | survival at day 39 ([4]; VB-201 at all tested doses (0.04, 0.4 or 4 mg/kg daily oral gavage), FIG. 2): at least 80%; effect on colon length, compared between doses ([4]; day 39, 0.04 mg/kg VB-201 versus 0.4 and 4 mg/kg, FIG. 4): more effective than the higher doses; DSS-induced increase in the colon weight/length ratios ([4]; day 39, VB-201 at all tested doses (0.04, 0.4, 4 mg/kg), glatiramer acetate 2 mg per mouse, FIG. 5): partially reversed; C-reactive protein (CRP) levels, a marker for inflammation (C-reactive protein (CRP)): effective at reducing
3 | Glatiramer acetate | – | – | – | – | – | – | reduced body weight loss over the period of days 8-22 | did not reduce the DAI | not effective | reduced the DAI | survival by day 39 compared with control mice [4, 8]: below that of control mice; survival until day 23 [4, 8]: 100%
